Results taken from ChEMBL document CHEMBL1142390, “A set of phosphatase-inert "molecular rulers" to probe for bivalent mannose 6-phosphate ligand-receptor interactions” (Bioorg Med Chem Lett, 2008).
pIC50: −log10 of the molar value.

Tests used:
[1] = biological target: Cation-independent mannose-6-phosphate receptor (Bos taurus) (UniProt P08169); assay: Displacement of pentamannosyl phosphate bovine serum albumin from M6P/IGF2R
[2] = biological target: Cation-independent mannose-6-phosphate receptor (Bos taurus) (UniProt P08169); assay: Displacement of pentamannosyl phosphate bovine serum albumin from M6P/IGF2R relative to M6P

Sequence of Cation-independent mannose-6-phosphate receptor (Bos taurus) (P08169 whole entry, looked up): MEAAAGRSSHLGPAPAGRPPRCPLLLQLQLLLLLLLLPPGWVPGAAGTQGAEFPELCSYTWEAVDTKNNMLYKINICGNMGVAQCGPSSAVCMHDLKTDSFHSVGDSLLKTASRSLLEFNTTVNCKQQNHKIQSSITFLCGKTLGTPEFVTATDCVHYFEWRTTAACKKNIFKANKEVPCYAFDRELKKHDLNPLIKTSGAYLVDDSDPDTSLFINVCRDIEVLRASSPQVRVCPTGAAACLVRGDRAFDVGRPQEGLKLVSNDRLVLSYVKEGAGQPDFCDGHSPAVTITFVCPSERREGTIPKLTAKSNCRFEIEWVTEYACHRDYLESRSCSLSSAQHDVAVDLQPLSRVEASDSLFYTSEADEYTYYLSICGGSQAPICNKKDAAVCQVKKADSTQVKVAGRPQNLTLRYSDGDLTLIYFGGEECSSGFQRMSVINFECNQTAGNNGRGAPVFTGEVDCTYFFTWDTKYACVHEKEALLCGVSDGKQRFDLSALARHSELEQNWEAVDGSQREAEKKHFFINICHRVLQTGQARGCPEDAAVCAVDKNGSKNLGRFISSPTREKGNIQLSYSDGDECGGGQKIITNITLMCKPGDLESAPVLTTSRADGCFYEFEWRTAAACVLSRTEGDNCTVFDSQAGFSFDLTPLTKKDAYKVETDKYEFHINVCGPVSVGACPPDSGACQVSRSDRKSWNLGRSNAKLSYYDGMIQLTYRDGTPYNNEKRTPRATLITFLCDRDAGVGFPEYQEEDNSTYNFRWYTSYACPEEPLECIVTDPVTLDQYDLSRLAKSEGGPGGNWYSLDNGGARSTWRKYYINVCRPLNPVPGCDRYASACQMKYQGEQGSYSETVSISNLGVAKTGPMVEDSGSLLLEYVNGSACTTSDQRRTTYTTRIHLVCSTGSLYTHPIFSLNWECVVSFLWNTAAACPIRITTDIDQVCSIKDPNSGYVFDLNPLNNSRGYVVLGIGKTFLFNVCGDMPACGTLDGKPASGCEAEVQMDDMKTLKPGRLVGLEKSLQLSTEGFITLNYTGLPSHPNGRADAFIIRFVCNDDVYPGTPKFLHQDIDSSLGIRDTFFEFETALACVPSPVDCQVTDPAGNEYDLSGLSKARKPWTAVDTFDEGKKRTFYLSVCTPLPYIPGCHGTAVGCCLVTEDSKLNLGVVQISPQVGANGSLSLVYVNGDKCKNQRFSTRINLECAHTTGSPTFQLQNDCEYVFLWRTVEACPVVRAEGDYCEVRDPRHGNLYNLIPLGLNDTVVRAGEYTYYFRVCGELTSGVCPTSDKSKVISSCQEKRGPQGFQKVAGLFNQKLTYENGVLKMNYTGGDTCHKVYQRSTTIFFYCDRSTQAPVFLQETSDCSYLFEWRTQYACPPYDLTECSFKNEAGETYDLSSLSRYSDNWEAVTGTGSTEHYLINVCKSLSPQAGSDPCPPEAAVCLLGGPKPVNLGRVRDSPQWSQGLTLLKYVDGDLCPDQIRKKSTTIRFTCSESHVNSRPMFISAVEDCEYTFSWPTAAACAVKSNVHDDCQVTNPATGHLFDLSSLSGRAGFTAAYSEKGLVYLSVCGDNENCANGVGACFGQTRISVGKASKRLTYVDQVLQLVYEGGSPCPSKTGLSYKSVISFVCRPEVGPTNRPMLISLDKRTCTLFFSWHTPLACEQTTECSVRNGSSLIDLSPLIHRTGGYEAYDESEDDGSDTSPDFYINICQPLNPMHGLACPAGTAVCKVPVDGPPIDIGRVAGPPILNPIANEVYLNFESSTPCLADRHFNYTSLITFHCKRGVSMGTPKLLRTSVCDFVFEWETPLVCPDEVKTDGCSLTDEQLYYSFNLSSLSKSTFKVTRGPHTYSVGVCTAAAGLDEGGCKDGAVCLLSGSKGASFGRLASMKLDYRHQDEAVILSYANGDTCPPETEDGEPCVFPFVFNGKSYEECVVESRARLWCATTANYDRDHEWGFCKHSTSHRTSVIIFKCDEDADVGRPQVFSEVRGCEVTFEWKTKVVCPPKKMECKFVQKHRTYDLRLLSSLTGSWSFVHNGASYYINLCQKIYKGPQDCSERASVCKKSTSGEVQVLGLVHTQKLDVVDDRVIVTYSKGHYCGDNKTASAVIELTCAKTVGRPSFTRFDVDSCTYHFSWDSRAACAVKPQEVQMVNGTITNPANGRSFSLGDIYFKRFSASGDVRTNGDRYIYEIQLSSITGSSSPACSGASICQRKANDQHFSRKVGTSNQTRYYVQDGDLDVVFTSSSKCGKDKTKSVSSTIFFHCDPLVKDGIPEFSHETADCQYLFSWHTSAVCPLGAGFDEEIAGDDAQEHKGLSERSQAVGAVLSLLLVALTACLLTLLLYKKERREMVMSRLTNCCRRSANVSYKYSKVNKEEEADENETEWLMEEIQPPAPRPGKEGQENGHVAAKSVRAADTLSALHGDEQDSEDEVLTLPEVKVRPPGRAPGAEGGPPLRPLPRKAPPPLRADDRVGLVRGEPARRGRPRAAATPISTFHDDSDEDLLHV

Row | pIC50 [1] | relative binding affinity (RBA) [2] | SMILES
1 | 4.94 |  | O=P(O)(O)OC[C@H]1OC(O)[C@@H](O)[C@@H](O)[C@@H]1O (stereo not given in full)
2 | 7.05 | 2890 | CC(=O)N[C@H](C(=O)N[C@@H](CCCCNC(=O)c1ccccc1N)C(=O)N[C@H](C(N)=O)[C@@H](C)O[C@H]1O[C@H](CO)[C@@H](O)[C@H](O)[C@@H]1O[C@H]1O[C@H](COP(=O)(O)O)[C@@H](O)[C@H](O)[C@@H]1O)[C@@H](C)O[C@H]1O[C@H](CO)[C@@H](O)[C@H](O)[C@@H]1O[C@H]1O[C@H](COP(=O)(O)O)[C@@H](O)[C@H](O)[C@@H]1O
3 | 5.74 | 144 | CC(=O)NCCCC[C@H](NC(=O)[C@@H](NC(C)=O)[C@@H](C)O[C@H]1O[C@H](CO)[C@@H](O)[C@H](O)[C@@H]1O[C@H]1O[C@H](COP(=O)(O)O)[C@@H](O)[C@H](O)[C@@H]1O)C(=O)N[C@H](C(N)=O)[C@@H](C)O[C@H]1O[C@H](CO)[C@@H](O)[C@H](O)[C@@H]1O[C@H]1O[C@H](COP(=O)(O)O)[C@@H](O)[C@H](O)[C@@H]1O
4 | 4.70 | 13 | CC(=O)N[C@H](C(=O)N[C@@H](CCCCN)C(=O)N[C@H](C(N)=O)[C@@H](C)O[C@H]1O[C@H](CO)[C@@H](O)[C@H](O)[C@@H]1O[C@H]1O[C@H](COP(=O)(O)O)[C@@H](O)[C@H](O)[C@@H]1O)[C@@H](C)O[C@H]1O[C@H](CO)[C@@H](O)[C@H](O)[C@@H]1O[C@H]1O[C@H](COP(=O)(O)O)[C@@H](O)[C@H](O)[C@@H]1O
5 | 5.43 | 3.02 | O=P(O)(O)OC[C@H]1O[C@H](OCCCCCCCCCCCCO[C@H]2O[C@H](COP(=O)(O)O)[C@@H](O)[C@H](O)[C@@H]2O)[C@@H](O)[C@@H](O)[C@@H]1O
6 | < 5.00 |  | O=P(O)(O)OC[C@H]1O[C@@H](O)[C@H](O)[C@@H](O)[C@@H]1O
